This is an account of results in patent publication US20230192700A1, “PYRAZOLOPYRAZINES ACTING ON CANCERS VIA INHIBITION OF CDK12” (Bayer Aktiengesellschaft, priority 2020, published 2023).

T1 sequence (Q9NYV4 whole entry): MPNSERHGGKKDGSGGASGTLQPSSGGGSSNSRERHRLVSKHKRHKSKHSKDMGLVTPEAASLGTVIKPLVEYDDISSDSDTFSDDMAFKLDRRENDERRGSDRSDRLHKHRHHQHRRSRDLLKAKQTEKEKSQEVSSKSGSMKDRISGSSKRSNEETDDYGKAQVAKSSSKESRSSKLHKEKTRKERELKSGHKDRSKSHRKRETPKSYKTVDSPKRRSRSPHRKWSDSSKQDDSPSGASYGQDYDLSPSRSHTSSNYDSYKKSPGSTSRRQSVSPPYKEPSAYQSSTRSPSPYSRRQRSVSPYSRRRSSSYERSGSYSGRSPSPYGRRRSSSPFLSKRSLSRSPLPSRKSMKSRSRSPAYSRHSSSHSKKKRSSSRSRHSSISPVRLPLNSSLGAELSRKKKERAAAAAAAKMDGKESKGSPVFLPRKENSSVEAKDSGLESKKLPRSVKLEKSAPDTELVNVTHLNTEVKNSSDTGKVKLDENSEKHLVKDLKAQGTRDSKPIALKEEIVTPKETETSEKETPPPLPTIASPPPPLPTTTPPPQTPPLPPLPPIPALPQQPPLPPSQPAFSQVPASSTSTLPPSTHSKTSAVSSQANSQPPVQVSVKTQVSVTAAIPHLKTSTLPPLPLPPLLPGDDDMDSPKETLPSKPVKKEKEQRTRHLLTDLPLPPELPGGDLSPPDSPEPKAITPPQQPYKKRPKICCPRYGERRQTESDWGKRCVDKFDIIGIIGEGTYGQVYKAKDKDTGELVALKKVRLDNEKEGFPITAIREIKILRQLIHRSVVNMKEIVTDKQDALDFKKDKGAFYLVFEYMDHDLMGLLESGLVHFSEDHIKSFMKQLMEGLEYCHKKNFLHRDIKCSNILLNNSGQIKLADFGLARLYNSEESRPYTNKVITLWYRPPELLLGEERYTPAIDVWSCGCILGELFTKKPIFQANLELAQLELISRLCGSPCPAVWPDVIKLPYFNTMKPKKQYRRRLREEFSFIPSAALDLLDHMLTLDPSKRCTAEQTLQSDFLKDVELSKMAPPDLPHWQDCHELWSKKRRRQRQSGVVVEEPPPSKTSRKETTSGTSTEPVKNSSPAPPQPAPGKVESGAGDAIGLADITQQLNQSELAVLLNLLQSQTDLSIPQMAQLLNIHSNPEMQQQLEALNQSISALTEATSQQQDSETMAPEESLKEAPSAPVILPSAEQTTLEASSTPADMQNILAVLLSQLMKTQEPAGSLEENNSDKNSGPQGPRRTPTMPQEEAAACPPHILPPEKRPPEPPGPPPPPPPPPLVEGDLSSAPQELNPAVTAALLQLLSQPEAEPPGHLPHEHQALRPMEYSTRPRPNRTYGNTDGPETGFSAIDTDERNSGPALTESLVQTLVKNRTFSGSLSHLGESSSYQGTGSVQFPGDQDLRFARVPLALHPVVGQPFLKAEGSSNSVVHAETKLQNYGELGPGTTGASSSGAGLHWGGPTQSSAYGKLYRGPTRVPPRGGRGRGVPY
T1 sequence (O75909 whole entry partner): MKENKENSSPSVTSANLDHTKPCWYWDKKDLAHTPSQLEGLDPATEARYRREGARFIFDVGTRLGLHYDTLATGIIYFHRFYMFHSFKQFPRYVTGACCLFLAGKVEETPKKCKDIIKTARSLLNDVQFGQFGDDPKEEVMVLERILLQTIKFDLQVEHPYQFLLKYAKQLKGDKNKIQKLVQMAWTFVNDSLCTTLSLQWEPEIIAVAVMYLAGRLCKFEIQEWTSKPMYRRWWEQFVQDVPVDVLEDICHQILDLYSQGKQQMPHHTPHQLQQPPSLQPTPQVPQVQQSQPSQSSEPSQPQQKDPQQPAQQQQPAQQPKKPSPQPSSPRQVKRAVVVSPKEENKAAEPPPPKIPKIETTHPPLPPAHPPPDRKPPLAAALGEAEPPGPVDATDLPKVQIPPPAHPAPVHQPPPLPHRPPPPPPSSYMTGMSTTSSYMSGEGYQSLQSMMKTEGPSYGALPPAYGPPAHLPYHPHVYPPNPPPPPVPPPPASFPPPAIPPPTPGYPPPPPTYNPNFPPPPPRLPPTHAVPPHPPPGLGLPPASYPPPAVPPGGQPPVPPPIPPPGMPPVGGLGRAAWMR

The first test has as its system BRCA1 mRNA expression in MDA-MB-231 cells. As to the kind of experiment: qRT-PCR assay: inhibition of BRCA1 mRNA expression in MDA-MB-231 cells. The conditions noted are these: 24 h exposure, BRCA1 mRNA normalised to GAPDH, median, read-out: RTqPCR-MDA-MB-231 IC50 [mol/l] BRCA1 (median). Format: cell-based, human. The method, then: (§1) 3. qRT-PCR Assay: BRCA1, ATR, MCL1 in MDA-MB-231, CAL-120
(§2) Tissue cultured human MDA-MB-231 human breast cancer cells were plated in 500 microL per well at 200,000 cells/well in a 24 well microtiter plate. After 24 h, the cells were exposed continuously for 24 h to test substances (substances were added with Tecan HP D300 Dispenser). RNA was prepared using Qiagen RNeasy MiniKit (#74106), RNA was quantified using a NanoDrop Equipment, and 600 nano gamms of RNA was coverted to cDNA using a SuperScript VILO kit (Thermofisher #11755050) followed by qPCR amplification. BRCA1 and ATR gene expression was measured by RT-qPCR and normalised to GAPDH housekeeping gene expression. qPCR primer sets have been purchased from Thermo Fisher Scientific/Applied Biosystems: BRCA1, # Hs 01556193; ATR, #Hs 00992123; GAPDH, #Hs 03929097.
(Quantitative PCR measures a nucleic acid by following its amplification.)
Take `COCCC(C)n1nc(NCc2nc3ccccc3[nH]2)c2ncc(C3CC3)nc21` (single isomer, unassigned; (+)) [Example 59, (+)-N-[(1H-benzimidazol-2-yl)methyl]-6-cyclopropyl-1-[4-methoxybutan-2-yl]-1H-pyrazolo[3,4-b]pyrazin-3-amine]: the IC50 is 248 nM.

The test is the same for the next values; noted with them: Homo sapiens, MDA-MB-231, 24 h, 24 h exposure, BRCA1 mRNA normalised to GAPDH, median, read-out: RTqPCR-MDA-MB-231 IC50 [mol/l] BRCA1 (median).
Turning to `c1ccc2[nH]c(CNc3nn(C4CCOCC4)c4nc(C5CC5)cnc34)nc2c1` [Example 16, N-[(1H-benzimidazol-2-yl)methyl]-6-cyclopropyl-1-(oxan-4-yl)-1H-pyrazolo[3,4-b]pyrazin-3-amine], the IC50 came out at 12.9 nM.

With `CN1CCC(n2nc(NCc3nc4ccccc4[nH]3)c3ncc(C4CC4)nc32)C1` (single isomer, unassigned) [Example 78, (+) or (−)-N-[(1H-benzimidazol-2-yl)methyl]-6-cyclopropyl-1-(1-methylpyrrolidin-3-yl)-1H-pyrazolo[3,4-b]pyrazin-3-amine], the IC50 came out at 15.6 nM.

As for `CN1CCC(n2nc(NCc3nc4cc(F)c(F)cc4[nH]3)c3ncc(C4CC4)nc32)CC1` [Example 30, 6-cyclopropyl-N-[(5,6-difluoro-1H-benzimidazol-2-yl)methyl]-1-(1-methylpiperidin-4-yl)-1H-pyrazolo[3,4-b]pyrazin-3-amine], the IC50 came to 11.7 nM.

`CN1CCC(n2nc(NCc3nc4ccccc4[nH]3)c3ncc(C4CC4)nc32)C1` (racemic) [Example 35, (±)-N-[(1H-benzimidazol-2-yl)methyl]-6-cyclopropyl-1-(1-methylpyrrolidin-3-yl)-1H-pyrazolo[3,4-b]pyrazin-3-amine]: the IC50 came to 30.2 nM.

On to `Fc1ccc2[nH]c(CNc3nn(C4CCOCC4)c4nc(C5CC5)cnc34)nc2c1F` [Example 32, 6-cyclopropyl-N-[(4,5-difluoro-1H-benzimidazol-2-yl)methyl]-1-(oxan-4-yl)-1H-pyrazolo[3,4-b]pyrazin-3-amine], for which the IC50 amounted to 29 nM.

As for `CN1CCC(n2nc(NCc3nc4ccccc4[nH]3)c3ncc(C4CC4)nc32)CC1` [Example 1, N-[(1H-benzimidazol-2-yl)methyl]-6-cyclopropyl-1-(1-methylpiperidin-4-yl)-1H-pyrazolo[3,4-b]pyrazin-3-amine], the IC50 is 13.7 nM.

With `CC1CC(n2nc(NCc3nc4ccccc4[nH]3)c3ncc(C4CC4)nc32)CCN1C` (racemic) [Example 41, (±)-cis/trans-N-[(1H-benzimidazol-2-yl)methyl]-6-cyclopropyl-1-(1,2-dimethylpiperidin-4-yl)-1H-pyrazolo[3,4-b]pyrazin-3-amine], the IC50 worked out at 20.6 nM.

As for `CN1CCC(n2nc(NCc3nc4cc(Cl)ccc4[nH]3)c3ncc(C4CC4)nc32)CC1` [Example 22, N-[(5-chloro-1H-benzimidazol-2-yl)methyl]-6-cyclopropyl-1-(1-methylpiperidin-4-yl)-1H-pyrazolo[3,4-b]pyrazin-3-amine], the IC50 amounted to 9.36 nM.

Turning to `Fc1ccc2[nH]c(CNc3nn(C4CCOCC4)c4nc(C5CC5)cnc34)nc2c1` [Example 53, 6-cyclopropyl-N-[(5-fluoro-1H-benzimidazol-2-yl)methyl]-1-(oxan-4-yl)-1H-pyrazolo[3,4-b]pyrazin-3-amine], the IC50 amounted to 10.9 nM.

For `Cc1c(F)ccc2[nH]c(CNc3nn(C4CCN(C)CC4)c4nc(C5CC5)cnc34)nc12` [Example 26, 6-cyclopropyl-N-[(5-fluoro-4-methyl-1H-benzimidazol-2-yl)methyl]-1-(1-methylpiperidin-4-yl)-1H-pyrazolo[3,4-b]pyrazin-3-amine], the IC50 came to 20 nM.

`CN1CCC(n2nc(NCc3nc4c(Cl)c(F)ccc4[nH]3)c3ncc(C4CC4)nc32)CC1` [Example 31, N-[(4-chloro-5-fluoro-1H-benzimidazol-2-yl)methyl]-6-cyclopropyl-1-(1-methylpiperidin-4-yl)-1H-pyrazolo[3,4-b]pyrazin-3-amine]: the IC50 came out at 4.99 nM.

For the compound `CN1CCC(n2nc(NCc3nc4cc(C(F)(F)F)ccc4[nH]3)c3ncc(C4CC4)nc32)CC1` [Example 25, 6-cyclopropyl-1-(1-methylpiperidin-4-yl)-N-{[5-(trifluoromethyl)-1H-benzimidazol-2-yl]methyl}-1H-pyrazolo[3,4-b]pyrazin-3-amine], the IC50 was found to be 5.88 nM.

Consider `CC(C)(O)CCn1nc(NCc2nc3ccccc3[nH]2)c2ncc(C3CC3)nc21` [Example 76, 4-(3-{[(1H-benzimidazol-2-yl)methyl]amino}-6-cyclopropyl-1H-pyrazolo[3,4-b]pyrazin-1-yl)-2-methylbutan-2-ol], for which the IC50 was determined as 7.4 nM.

For the compound `CN1CCCC(n2nc(NCc3nc4ccccc4[nH]3)c3ncc(C4CC4)nc32)CC1` (single isomer, unassigned) [Example 37, (+) or (−)-N-[(1H-benzimidazol-2-yl)methyl]-6-cyclopropyl-1-[(4R*)-1-methylazepan-4-yl]-1H-pyrazolo[3,4-b]pyrazin-3-amine], the IC50 came to 11.3 nM.

`CN1CCC(n2nc(NCc3nc4cc(F)ccc4[nH]3)c3ncc(C4CC4)nc32)CC1` [Example 4, 6-cyclopropyl-N-[(5-fluoro-1H-benzimidazol-2-yl)methyl]-1-(1-methylpiperidin-4-yl)-1H-pyrazolo[3,4-b]pyrazin-3-amine]: the IC50 is 17.1 nM.

Another test has as its system BRCA1 mRNA expression in CAL-120 cells. As to the kind of experiment: qRT-PCR assay: inhibition of BRCA1 mRNA expression in CAL-120 cells. Format: cell-based. The conditions noted are these: Homo sapiens, median, read-out: RTqPCR-CAL-120 IC50 [mol/l] BRCA1 (median). The method, then:
as §1, §2
As to `c1ccc2[nH]c(CNc3nn(C4CCOCC4)c4nc(C5CC5)cnc34)nc2c1` [Example 16, N-[(1H-benzimidazol-2-yl)methyl]-6-cyclopropyl-1-(oxan-4-yl)-1H-pyrazolo[3,4-b]pyrazin-3-amine], the IC50 came to 64.3 nM.

The next test has as its target T1, CDK12 (Homo sapiens, UniProt Q9NYV4).
T1 construct: endogenous in cells; host or cells: CAL-120 human breast cancer cells (DSMZ ACC 459)
As to the kind of experiment: CDK12 protein level in CAL-120 cells (Protein Simple). The class given is cell-based. The note with it: 18 h, CDK12/HSP90 peak area ratio, median, read-out: CDK12 protein level in CAL-120 breast ca cells DC50 - [mol/l] (median). How it is done: 5. CDK12 protein level: Protein Simple (CDK12, CAL-120), Westernblot (CDK9, 12, 13)
CAL-120 human breast cancer cells (DSMZ ACC 459) were seeded at 300,000 cells/well in 6-well plates containing 2 mL of growth medium (DMEM, 10%FCS, glutamine) and incubated for 24 h at 37° C. in an humidified incubator. Test compounds were added at various concentrations, control wells received solvent (DMSO), and the plates were incubated for another 18h at 37° C. Cells were washed 2 times with PBS and lysed in 75 microL lysis buffer (MSD-Puffer (MSD, #R6OTX-2), +1% SDS+PhosSTOP (Roche #04906837001)+complete mini (Roche #04693159001)) by scraping. The lysates were pushed 2 times through Qiashedders followed by centrifugation at 14,000 rpm for 30-50 sec. The supernatant was stored at -20° C. […] CDK12 and HSP90 (loading control) were detected using anti-human CDK12 antibody (Cell Signaling Technologies (CST) #11793) at 1:25 dilution and anti-human HSP90 antibody (CST #4877) at 1:5,000 dilution. CDK12 and HSP90 peak areas were determined using Protein Simple Compass software. Ratio of CDK12/HSP90 peak areas were calculated for each sample, and DC50 values (degrading concentration to achieve 50% reduction relative to vehicle treated control) were determined by means of a 4 parameter fit.
Take `c1ccc2[nH]c(CNc3nn(C4CCOCC4)c4nc(C5CC5)cnc34)nc2c1` [Example 16, N-[(1H-benzimidazol-2-yl)methyl]-6-cyclopropyl-1-(oxan-4-yl)-1H-pyrazolo[3,4-b]pyrazin-3-amine]: the DC50 was 31.1 nM.
